The supplement of paper PMC10883282
± gives the standard deviation of the averaged measurements.

Tested on: RD
Assay: relative viability vs DMSO control (72 h) (fraction); higher = more viable cells
How it was run: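 Sarcoma cell lines were seeded in 384-well plates at densities chosen for 80–90% confluence, then 24 h later given 2.5 µl of serially diluted compound drawn from source plates spanning 10 mM to 0.0002 mM. They were held 72 h at 37 °C, 5% CO2, with 0.1% DMSO vehicle and a 5 µM positive control included. Relative viability was read with ATPLite as percent growth and averaged over up to triplicate wells. Rescaling placed full at 1 and none at 0.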

Row | SMILES | relative viability (0.00017 µM) | relative viability (0.00051 µM) | relative viability (0.00152 µM) | relative viability (0.00457 µM) | relative viability (0.01372 µM) | relative viability (0.04115 µM) | relative viability (0.1235 µM) | relative viability (0.3704 µM) | relative viability (1.111 µM) | relative viability (3.333 µM) | relative viability (10 µM)
1 | CO[C@H]1C[C@@H]2CC[C@@H](C)[C@@](O)(O2)C(=O)C(=O)N2CCCC[C@H]2C(=O)O[C@H]([C@H](C)C[C@@H]2CC[C@@H](OP(C)(C)=O)[C@H](OC)C2)CC(=O)[C@H](C)/C=C(\C)[C@@H](O)[C@@H](OC)C(=O)[C@H](C)C[C@H](C)/C=C/C=C/C=C/1C [Ridaforolimus] | 1.06 ± 0.032 | 1.05 ± 0.049 | 0.921 ± 0.01 | 0.847 ± 0.02 | 0.753 ± 0.038 | 0.75 ± 0.036 | 0.764 ± 0.029 | 0.71 ± 0.053 | 0.715 ± 0.071 | 0.701 ± 0.053 | 0.683 ± 0.05
2 | Cc1cnc(Nc2ccc(OCCN3CCCC3)cc2)nc1Nc1cccc(S(=O)(=O)NC(C)(C)C)c1 [Fedratinib] | 1.07 ± 0.031 | 1.09 ± 0.03 | 1.12 ± 0.042 | 1.13 ± 0.048 | 1.12 ± 0.064 | 1.14 ± 0.058 | 1.09 ± 0.09 | 0.785 ± 0.066 | 0.445 ± 0.025 | 0.0678 ± 0.011 | 0.00303 ± 0.0004
3 | Cn1cc(-c2cc3c(N4CCN(c5ncc([C@@](C)(N)c6ccc(F)cc6)cn5)CC4)ncnn3c2)cn1 [Avapritinib] | 1.04 ± 0.055 | 1.03 ± 0.031 | 1.06 ± 0.02 | 1.05 ± 0.041 | 1.05 ± 0.033 | 1.03 ± 0.045 | 1.04 ± 0.02 | 1.06 ± 0.043 | 1.03 ± 0.043 | 0.939 ± 0.03 | 0.813 ± 0.087
4 | CN1CCN(c2ccc3nc(-c4c(N)c5c(F)cccc5[nH]c4=O)[nH]c3c2)CC1 [Dovitinib] | 0.963 ± 0.05 | 0.983 ± 0.064 | 0.991 ± 0.072 | 0.985 ± 0.053 | 0.978 ± 0.099 | 0.995 ± 0.074 | 0.998 ± 0.071 | 0.99 ± 0.072 | 0.812 ± 0.073 | 0.632 ± 0.05 | 0.113 ± 0.035
